From patent publication US5369120A, “Pharmaceutical composition of 7-((substituted)amino-8-((substituted)carbonyl)-(methylamino)-1-oxasp iro(4,5)decanes and L-dopa” (Warner-Lambert Company, priority 1993, dated 1994)

System: rats rendered Parkinsonian by injection of reserpine
Experiment: locomotor activity and rigidity in reserpine-treated Parkinsonian rats
Type: in vivo, rat
Conditions: reserpine (4 mg/kg) rats; L-DOPA 80 mg/kg intraperitoneal, subthreshold dose

N[C@@H](Cc1ccc(O)c(O)c1)C(=O)O [L-DOPA, 3-(3,4-dihydroxyphenyl)L-alanine]
Locomotor scores: very low locomotor scores
